One series deals with male and female SD rats. Briefly: 14-day dose-range-finding oral gavage study. Conditions: both sexes, all doses. The format is in vivo, rat. How it is done: (§1) Dose-range-finding (14-day) studies were conducted using male and female rats to establish dose levels for 90-day studies and identify potential target organ toxicities. Male and female rats (n = 5 sex/group, a control and three dose groups, corn oil vehicle dose volume of 5 mL/kg) were administered PFASs by oral gavage daily for 14 days and euthanized on study day (SD) 15. The dose levels for PFHI, CTFPA, and MHFPK were 0, 30, 100, and 300 mg/kg-day. The dose levels for PFNAC were 0, 10, 30, and 100 mg/kg-day. The in vivo data collected included BW, BWCs, FC, cage-side observations, and physical exams. Gross necropsies, relative and absolute organ weights, and clinical chemistry data were collected for all the groups. Macroscopic and microscopic pathology examinations were conducted for the control and high-dose groups initially; the other groups were examined if justified by experimental findings. Plasma samples were analyzed ~2 h post dosing on day 1 and at day 15 for the parent PFAS chemical.
Neurotoxicity was evaluated using the functional observational battery (FOB) and measuring locomotor activity (LMA) 2–4 h post dosing on SDs 78–80 and 80–84, respectively. For both the 14- and 90-day studies, an ophthalmologic examination was conducted prior to randomization and near the end of the study, using indirect ophthalmoscopy and slit–lamp biomicroscopy (as needed) after the administration of a mydriatic solution.
Hematology, biochemistry, and coagulation endpoints were measured at the termination of the study. A Siemens Advia 2120i hematology analyzer (Siemens Healthineers, Erlangen, Germany) was used to measure (or calculate) the parameters related to the complete blood count, leukocyte differential count, and reticulocyte count. The hematology parameters are listed and described in Table 2. The prothrombin time […] and activated partial thromboplastin time (APTT) were measured using an Instrumentation Laboratory (Bedford, MA, USA) ACL Elite Pro coagulation analyzer (laser–nephelometric centrifugal method).
At necropsy, the rats were visually examined for external abnormalities and organ weights (absolute and relative to the BW and brain weight), which were recorded (paired organs weighed together). The tissues were preserved in 10% neutral buffered formalin (NBF), except for the ocular tissues, testes, and epididymides, which were preserved in modified Davidson’s fixative and later transferred to 10% NBF. Bone marrow smears were prepared from the femurs, and the slides were air-dried, fixed in methanol, stained, and stored at room temperature for possible future evaluation. The preserved tissues were embedded in paraffin, sectioned, stained with hematoxylin and eosin, and examined by a board-certified veterinary pathologist.

The nature of series [1]: Parent chemical in rat plasma, 14-day study. It is filed as in vivo. The following applies: for concentration at 15 day: Sprague-Dawley, rat, plasma, oral; for Percentage of the dose in the plasma: 14 days. How it is done: as §1
(§2) On SD 1 of the 14-day study (~2 h post dosing), 0.2 mL of blood was collected via tail vein puncture in tubes containing K3EDTA and stored on wet ice. Prior to the scheduled euthanasia, blood (~1 mL) was collected from the jugular vein in tubes containing K3EDTA and stored on wet ice on SD 15, for the 14-day study, and SD 91, for the 90-day study. All the tubes were centrifuged at an ~1500 relative centrifugal force within 1 h of collection for 15 min at 5 ± 3 °C. The plasma was stored at −75 ± 15 °C until the analysis. PFNAC and PFHI were analyzed using a headspace GC–mass spectrometry (MS) method, as summarized in Table S3, and CTFPA was analyzed using an ultra-HPLC-MS method, as summarized in Table S4. The MHFPK samples were not analyzed because a method suitable for plasma was not available. The details concerning the preparation of the samples, method blanks, and matrix and QC standards for the analysis are available in the appendices to the study reports.

Series [2] can be described thus: Parent chemical in rat plasma, 90-day study. It is filed as in vivo. Conditions: for concentration at 91 day: Sprague-Dawley, rat, plasma, oral; for Percentage of the dose in the plasma: 90 days. How it is done: Subchronic (90-day) studies were performed in accordance with current U.S. EPA’s Toxic Substances Control Act Good Laboratory Practice (GLP) Standards, with the following two general exceptions to the GLP guidelines: Analysis of the dose formulations was conducted according to RTI-approved Standard Operating Procedures, and corn oil (the vehicle) was not characterized (certificate of analysis from the vendor is available in the appendices to the final reports). Male and female Sprague–Dawley rats (five dose levels plus a control, n = 10/sex/dose group, corn oil vehicle dose volume of 3 mL/kg; oral gavage) were used in these studies, and the rats were euthanized on SD 91. The dose levels for PFHI were 0, 12.5, 25, 50, 100, and 200 mg/kg-day. The dose levels for MHFPK were 0, 18.8, 37.5, 75, 150, and 300 mg/kg-day. The dose levels for PFNAC were 0, 0.1, 0.3, 1.0, 3.0, and 10 mg/kg-day for male rats and 0, 0.3, 1.0, 3.0, 10, and 30 mg/kg-day for female rats. For CTFPA, the dose levels were 0, 1.9, 3.8. 7.5, 15, and 30 mg/kg-day for male rats and 0, 6.3, 12.5, 25, 50, and 100 mg/kg-day for female rats. For each PFAS, three batches of dosing solution were prepared. The time between the batch preparation of the dosing solutions ranged between 29 and 39 days. Blood samples were collected from all the rats at termination for serum chemistry, hematology, coagulation, and the analysis of the parent PFAS chemical in the plasma. In vivo data collection and further detail on the endpoints examined postmortem are described below.
as §2

Where [3] appears, read: male, Day 1 (2 hours post dosing), 100 mg/kg-day.

Molecules are shown by their SMILES.

Regarding `O=C(O)C(F)(Cl)C(F)(F)F` (centres unmarked) [CTFPA, 2-Chloro-2,3,3,3-tetrafluoropropanoic acid], the “Bodyweight and bodyweight gain” value with male and female SD rats is “No changes”. In addition, the Clinical chemistry entry with male and female SD rats is “Females: mild increases in albumin, A/G ratio and mild sporadic decreases in globulin and minimal increases in the total protein; males: minimal increases in calcium and from minimal to mild increases in BUN at all the dose levels. At 300 mg/kg-day, mild increases in ALPi”. Also, in the series with male and female SD rats, the Clinical observations result is reported as “None”. Further, the Coagulation endpoints result in the series with male and female SD rats was “No effects”. Besides, in the series with male and female SD rats, the Feed consumption result is given as “No effects”. Further, the Gross lesions result in the series on male and female SD rats is “None”. The Hematology entry in the series with male and female SD rats is recorded as “Mild increases in MPV in males at all the doses, not seen in females”. The Histopathology result with male and female SD rats was “From minimal to moderate diffuse hepatocellular hypertrophy seen in the livers of males at ≥30 mg/kg-day (5/5 in all the groups, with severity increasing with dose) and females at ≥100 mg/kg-day (5/5 with, severity increasing with dose)”. Further, the Morbidity and mortality entry in the series on male and female SD rats is on record as “None”. For the same compound, the Ophthalmology result with male and female SD rats is reported as “No ocular lesions”. Further, the Organ weight changes entry in the series with male and female SD rats was “Females: liver at >100 mg/kg-day; males: liver, dose-dependent pattern in all the dose groups”. The concentration at 15 day came out at 27.2 µg/mL in series [1] (female, Day 15, 30 mg/kg-day); 45.4 µg/mL in series [1] (female, Day 15, 100 mg/kg-day); 123 µg/mL in series [1] (female, Day 15, 300 mg/kg-day); 49.8 µg/mL in series [1] (male, Day 15, 30 mg/kg-day); 99.1 µg/mL in series [1] (male, Day 15, 100 mg/kg-day); 120 µg/mL in series [1] (male, Day 15, 300 mg/kg-day). Also, the “Percentage of the dose in the plasma” value in series [1] (female, 100 mg/kg-day) was 1.75 ± 0.67%; in series [1] (male, 30 mg/kg-day), 6.39 ± 2.03%; in series [2] (female, 100 mg/kg-day), 4.48 ± 1.63%; in series [2] (male, 30 mg/kg-day) it was 10.82 ± 2.76%. Moreover, the “Parent chemical in plasma” value in series [1] (female, Day 1, 30 mg/kg-day) is on record as 46,700 ± 10,000 ng/mL; in series [1] (female, Day 1, 100 mg/kg-day) it was 107,000 ± 30,400 ng/mL; in series [1] (female, Day 1, 300 mg/kg-day) it was 297,000 ± 56,500 ng/mL; in series [1] (male, Day 1 (2 hours post dosing), 30 mg/kg-day) it was 48,400 ± 8430 ng/mL; in series [1] (setting [3]), 122,000 ± 43,800 ng/mL; in series [1] (male, Day 1 (2 hours post dosing), 300 mg/kg-day), 321,000 ± 60,600 ng/mL. Besides, the concentration at 91 day in series [2] (female, Day 91, 6.3 mg/kg-day) was 12.6 µg/mL; in series [2] (female, Day 91, 12.5 mg/kg-day), 24.7 µg/mL; in series [2] (female, Day 91, 25 mg/kg-day) it was 51 µg/mL; in series [2] (female, Day 91, 50 mg/kg-day), 71.5 µg/mL; in series [2] (female, Day 91, 100 mg/kg-day) it was 116 µg/mL; in series [2] (male, Day 91, 1.9 mg/kg-day), 12.6 µg/mL. Further, the concentration at 91 day in series [2] (male, Day 91, 3.8 mg/kg-day) was 22.3 µg/mL; in series [2] (male, Day 91, 7.5 mg/kg-day) it was 43.3 µg/mL; in series [2] (male, Day 91, 15 mg/kg-day), 62.1 µg/mL; in series [2] (male, Day 91, 30 mg/kg-day) it was 84.4 µg/mL.
`C=CC(=O)OCC(F)(F)C(F)(F)C(F)(F)C(F)(F)C(F)(F)C(F)(F)C(F)(F)C(F)F` [PFNAC, 1H,1H,9H-Perfluorononyl acrylate]: in the series on male and female SD rats, the “Bodyweight and bodyweight gain” value is “No changes”; the Clinical chemistry result was “From mild to moderate decreases in mean cholesterol levels in males at all the dose levels and in females at 30 and 100 mg/kg-day, with from mild to moderate increases in triglycerides in both sexes at 100 mg/kg-day and in females at 30 mg/kg-day”; the Clinical observations result is listed as “None”; the Coagulation endpoints entry is “No effects”. For the same compound, in the series with male and female SD rats, the Feed consumption entry is listed as “No effects”; the Gross lesions entry is given as “None”; the Hematology entry is reported as “No effects considered as chemical related”; the Histopathology result is “From minimal to moderate liver hypertrophy in males only in 2/5, 3/5, and 4/4 at doses of 10, 30, and 100 mg/kg-day, respectively”. For the same compound, in the series on male and female SD rats, the Morbidity and mortality result is “None”; the Ophthalmology result is reported as “No ocular lesions”; the Organ weight changes result is “Dose-proportional increases in absolute and relative liver weights in all exposed males and females”. For the same compound, the “Parent chemical in plasma” value in series [1] (female, Day 1, 100 mg/kg-day) was “Parent chemical not detected at the highest dose”. In addition, the “Parent chemical in plasma” value in series [1] (female, Day 15, 100 mg/kg-day) is “Parent chemical not detected at the highest dose”. Further, the “Parent chemical in plasma” value in series [1] (setting [3]) was “Parent chemical not detected at the highest dose”. In series [1] (male, Day 15, 100 mg/kg-day), the “Parent chemical in plasma” value is listed as “Parent chemical not detected at the highest dose”. Further, in series [2] (female, Day 91, highest dose 30 mg/kg-day), the “Parent chemical in plasma” value was “Parent chemical not detected at the highest dose”. Besides, the “Parent chemical in plasma” value in series [2] (male, Day 91, highest dose 10 mg/kg-day) is “Parent chemical not detected at the highest dose”.
For the compound `CC(=O)C(F)(F)C(F)(F)C(F)(F)F` [MHFPK, Methyl heptafluoropropyl ketone], in the series with male and female SD rats, the “Bodyweight and bodyweight gain” value is listed as “No changes”; the Clinical chemistry result was “Minimal increases in BUN and creatinine at 300 mg/kg-day for males; increased creatinine in females at ≥100 mg/kg-day”; the Clinical observations result is listed as “None”; the Coagulation endpoints entry was “No effects”. For the same compound, in the series with male and female SD rats, the Feed consumption entry was “No effects”, the Gross lesions result is on record as “None”, the Hematology result is “No effects considered as chemical related” and the Histopathology result is listed as “No test-substance-related changes”. In the series on male and female SD rats, the Morbidity and mortality entry was “None”; the Ophthalmology entry was “No ocular lesions”; the Organ weight changes entry is given as “No test-substance-related changes”.

For the origin of these results see article PMC12298827, “Subchronic Toxicities of Four Per- and Polyfluoroalkyl Substances (PFASs) by Oral Exposure in Sprague–Dawley Rats” (Toxics, 2025).
